Test results: patent EP2285386B1, “Use of ribose in the treatment of restless legs syndrome” (RiboCor, Inc., priority 2008, dated 2009)
Like-named read-outs stand apart in the source and are kept apart here.

Columns and labels:
[1] = human, in vivo, iv, cited from earlier work
[2] = tested on: two familial males with RLS; test: Restless Legs Syndrome case study: oral D-ribose at three dosing regimens, symptom diary; format: in vivo, human; settings: three weeks
Excerpt: We present a report on two familial males with RLS in which the supplementation of D-ribose produced a benefit in lessening the occurrence and severity of their daily symptoms. Both affected male individuals were from a positive family prevalence, three generations carrying the diagnosis of RLS. These males involved the latter two generations, parent and child, respectively. Both men had no underlying medical conditions. Their symptoms of RLS date back for decades and presently have progressed to the moderate to severe discomfort stage, mainly experienced during sedentary periods throughout the day with exacerbation of symptoms during nocturnal sleep.
Both individuals were introduced to D-ribose. To evaluate any potential benefits of D-ribose in RLS, each individual orally consumed D-ribose (five grams per dose) daily at different trial dosing regimens. Each trial dosing regimen lasted for three weeks with a two week interval washout between dosing regimens. The initial regimen involved a single dose of oral D- ribose consumed only at breakfast. The second dosing regimen involved consumption of oral D-ribose at breakfast and lunch. In the last dosing regiment, oral D-ribose was taken with all meals, breakfast, lunch and dinner. A diary pertaining to the documentation and severity of RLS symptoms was compiled.
The two week washout period between stages was designed to observe any return or worsening of their symptoms. […] Following completion of all dosing regimens of oral D-ribose and with the final wash out period, both males elected to re-start oral dosing of D-ribose at 5 grams/doses three times a day.

[3] = second regimen: oral, five grams at breakfast and lunch

SMILES: O=C[C@H](O)[C@H](O)[C@H](O)CO [D-Ribose]
- D-Ribose levels in the serum ([1]; 60 mg/kg): approximately 25 mg/dl
- half-life of D-Ribose in the serum ([1]; 60 mg/kg): 11 min
- D-Ribose levels in the serum ([1]; 100 mg/kg): approximately 25 mg/dl
- half-life of D-Ribose in the serum ([1]; 100 mg/kg): 16 min
- serum level ([1]; 222.2 mg/kg): ≤ 86 mg/dL
- serum levels [1]: ≤ 60 mg/dL
- energy and fatigue ([2]; initial regimen: oral, five grams single dose at breakfast): general feeling of more energy and less fatigue
- leg twitching events and the urge to move during the day [2, 3]: reduced for one of the subjects and rarely present in the other
- unpleasant sensations during the night [2, 3]: Both still experienced the unpleasant sensations during the night
